We go through eleven compounds from ChEMBL document CHEMBL1154933, “2-Aminothiadiazole inhibitors of AKT1 as potential cancer therapeutics” (Bioorg Med Chem Lett, 2010).

One may read the IC50 as the midpoint of a concentration-inhibition curve. Higher therefore signals lower potency.

The target of one experiment is RAC-alpha serine/threonine-protein kinase (Homo sapiens, UniProt P31749). Put plainly: Inhibition of AKT1 after 10 mins by [gamma33]ATP assay.
RAC-alpha serine/threonine-protein kinase, sequence (P31749 whole entry): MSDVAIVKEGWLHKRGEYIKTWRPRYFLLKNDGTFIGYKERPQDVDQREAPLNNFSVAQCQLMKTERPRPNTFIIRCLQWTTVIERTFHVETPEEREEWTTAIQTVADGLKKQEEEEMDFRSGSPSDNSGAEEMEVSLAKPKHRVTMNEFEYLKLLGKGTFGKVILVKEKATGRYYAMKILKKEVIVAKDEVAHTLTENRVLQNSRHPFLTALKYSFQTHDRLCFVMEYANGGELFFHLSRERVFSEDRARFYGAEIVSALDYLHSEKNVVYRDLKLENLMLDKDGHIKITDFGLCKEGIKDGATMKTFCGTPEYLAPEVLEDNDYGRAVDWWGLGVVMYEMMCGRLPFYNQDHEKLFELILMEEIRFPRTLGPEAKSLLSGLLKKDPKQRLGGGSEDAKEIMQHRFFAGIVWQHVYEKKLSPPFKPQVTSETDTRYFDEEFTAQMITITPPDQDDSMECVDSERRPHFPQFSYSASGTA
Take `Cc1n[nH]c2ccc(-c3nnc(NC[C@@H](N)Cc4ccc(Cl)cc4Cl)s3)cc12`: the IC50 is 18 nM.

As for `Cc1n[nH]c2ccc(-c3nnc(NC[C@@H](N)Cc4cccc(F)c4)s3)cc12`, the IC50 was 38 nM.

Compound `N[C@H](CNc1nnc(-c2ccc3[nH]ncc3c2)s1)Cc1ccc(Cl)cc1` displayed an IC50 of 24 nM.

For the compound `Cc1n[nH]c2ccc(-c3nnc(NC[C@@H](N)Cc4ccccc4F)s3)cc12`, the IC50 worked out at 198 nM.

`Cc1n[nH]c2ccc(-c3nnc(NC[C@@H](N)Cc4ccc(F)c(F)c4)s3)cc12` registered an IC50 of 14 nM.

In turn, `N[C@H](CNc1nnc(-c2ccc3[nH]ncc3c2)s1)Cc1cccc(C(F)(F)F)c1` displayed an IC50 of 25 nM.

Consider `Cc1n[nH]c2ccc(-c3nnc(NC[C@@H](N)Cc4ccccc4C(F)(F)F)s3)cc12`, for which the IC50 is 491 nM.

Take `CCc1n[nH]c2ccc(-c3nnc(NC[C@@H](N)Cc4ccccc4)s3)cc12`: the IC50 was 370 nM.

`Cc1n[nH]c2ccc(-c3nnc(NC[C@@H](N)Cc4ccccc4Cl)s3)cc12` registered an IC50 of 47 nM.

As for `Cc1n[nH]c2ccc(-c3nnc(NC[C@@H](N)Cc4ccccc4)s3)cc12`, the IC50 came to 76 nM.

In the case of `Cc1n[nH]c2ccc(-c3nnc(NC[C@@H](N)Cc4cccc(C(F)(F)F)c4)s3)cc12`, the IC50 turned out to be 6.1 nM.

The next experiment addresses Cyclin-dependent kinase 2 (Homo sapiens, UniProt P24941). Put plainly: Inhibition of CDK2.
Compound `Cc1n[nH]c2ccc(-c3nnc(NC[C@@H](N)Cc4ccc(Cl)cc4Cl)s3)cc12` came in with an IC50 of 70 nM.

`N[C@H](CNc1nnc(-c2ccc3[nH]ncc3c2)s1)Cc1ccc(Cl)cc1`: the concentration for half-maximal inhibition (IC50) turned out to be 41 nM.

As for `Cc1n[nH]c2ccc(-c3nnc(NC[C@@H](N)Cc4ccccc4F)s3)cc12`, the IC50 worked out at 104 nM.

`Cc1n[nH]c2ccc(-c3nnc(NC[C@@H](N)Cc4ccc(F)c(F)c4)s3)cc12`: the IC50 was determined as 19 nM.

Compound `Cc1n[nH]c2ccc(-c3nnc(NC[C@@H](N)Cc4ccccc4C(F)(F)F)s3)cc12` came in with an IC50 of 198 nM.

`Cc1n[nH]c2ccc(-c3nnc(NC[C@@H](N)Cc4ccccc4Cl)s3)cc12` yielded a 50% inhibitory concentration (IC50) of 57 nM.

With `Cc1n[nH]c2ccc(-c3nnc(NC[C@@H](N)Cc4ccccc4)s3)cc12`, the IC50 turned out to be 72 nM. This IC50 and that of the compound before are within 1.5-fold of each other.

With `Cc1n[nH]c2ccc(-c3nnc(NC[C@@H](N)Cc4cccc(C(F)(F)F)c4)s3)cc12`, the IC50 is 35 nM.

System in another experiment: not listed separately
As to the kind of experiment: Inhibition of PKA.
Regarding `Cc1n[nH]c2ccc(-c3nnc(NC[C@@H](N)Cc4ccc(Cl)cc4Cl)s3)cc12`, half-maximal inhibition (IC50) required 43 nM.

`Cc1n[nH]c2ccc(-c3nnc(NC[C@@H](N)Cc4cccc(F)c4)s3)cc12` returned an IC50 of 230 nM. Against the preceding compound, the IC50 is about 5.3-fold higher.

`N[C@H](CNc1nnc(-c2ccc3[nH]ncc3c2)s1)Cc1ccc(Cl)cc1` had an IC50 of 157 nM.

For `Cc1n[nH]c2ccc(-c3nnc(NC[C@@H](N)Cc4ccccc4F)s3)cc12`, inhibition was half-maximal at 215 nM (IC50).

On to `Cc1n[nH]c2ccc(-c3nnc(NC[C@@H](N)Cc4ccc(F)c(F)c4)s3)cc12`, for which the IC50 was found to be 27 nM.

`N[C@H](CNc1nnc(-c2ccc3[nH]ncc3c2)s1)Cc1cccc(C(F)(F)F)c1` gave an IC50 of 117 nM.

In the case of `Cc1n[nH]c2ccc(-c3nnc(NC[C@@H](N)Cc4ccccc4C(F)(F)F)s3)cc12`, half-maximal inhibition (IC50) required 247 nM.

Regarding `Cc1n[nH]c2ccc(-c3nnc(NC[C@@H](N)Cc4ccccc4Cl)s3)cc12`, the IC50 worked out at 106 nM.

In turn, `Cc1n[nH]c2ccc(-c3nnc(NC[C@@H](N)Cc4ccccc4)s3)cc12` showed an IC50 of 54 nM. This IC50 is about 2-fold lower than that of the compound before.

Turning to `Cc1n[nH]c2ccc(-c3nnc(NC[C@@H](N)Cc4cccc(C(F)(F)F)c4)s3)cc12`, half-maximal inhibition (IC50) was put at 6.5 nM.
